The results in this text go back to patent publication US10961231B2, “NTCP inhibitors” (National Institute of Biological Sciences, Beijing, priority 2018, dated 2021).

What is called IC50 is the concentration that inhibits the measured activity by half.

One experiment concerns the target T1, NTCP (Homo sapiens, UniProt Q14973).
T1 sequence (Q14973 1-349): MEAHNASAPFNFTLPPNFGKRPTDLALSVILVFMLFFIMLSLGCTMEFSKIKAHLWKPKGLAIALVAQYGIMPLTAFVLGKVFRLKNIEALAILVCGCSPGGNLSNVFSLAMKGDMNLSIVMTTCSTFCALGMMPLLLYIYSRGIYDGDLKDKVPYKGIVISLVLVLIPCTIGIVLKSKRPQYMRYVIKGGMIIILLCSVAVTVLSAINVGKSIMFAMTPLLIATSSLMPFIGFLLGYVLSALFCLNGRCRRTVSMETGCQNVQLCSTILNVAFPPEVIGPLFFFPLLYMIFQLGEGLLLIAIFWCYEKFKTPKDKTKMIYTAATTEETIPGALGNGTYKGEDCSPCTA
The experiment can be described thus: [3H]-TCA uptake assay (NTCP inhibition). The class given is cell-based. Conditions: IC50, given as a range, marked * (asterisk not explained). Put shortly:
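Read-out is liquid scintillation counting of Triton X-100 lysates after 15 min, 37° C uptake of 1 μM [3H]-taurocholate in Na+ Ringer's buffer (145 mM Na). Beforehand, PTH and HepG2-NTCP cells had 24 h in PMM for NTCP induction and 2 h of compound or DMSO treatment.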
Take `CCC1NC(=O)C(C2OC(Sc3cccc(OCC4CCN(C)CC4)c3)CC2C)N(C)C(=O)C(C(C)C)N(C)C(=O)C(CC(C)C)N(C)C(=O)C(CC(C)C)N(C)C(=O)C(C)NC(=O)C(C)NC(=O)C(CC(C)C)N(C)C(=O)C(C(C)C)NC(=O)C(CC(C)C)N(C)C(=O)CN(C)C1=O` (centres unmarked) [Compound 72]: the half-inhibitory concentration (IC50) lay in the range of 1000 to 100000 nM.

Take `CCC1NC(=O)C(C2OC(SCc3ccccc3)CC2C)N(C)C(=O)C(C(C)C)N(C)C(=O)C(CC(C)C)N(C)C(=O)C(CC(C)C)N(C)C(=O)C(C)NC(=O)C(C)NC(=O)C(CC(C)C)N(C)C(=O)C(C(C)C)NC(=O)C(CC(C)C)N(C)C(=O)CN(C)C1=O` (centres unmarked) [Compound 74A-s]: the IC50 lay in the range of 1000 to 100000 nM.

The compound `CCC1NC(=O)C(C2OC(SCc3cccc(S(=O)(=O)OCC(C)C)c3)CC2C)N(C)C(=O)C(C(C)C)N(C)C(=O)C(CC(C)C)N(C)C(=O)C(CC(C)C)N(C)C(=O)C(C)NC(=O)C(C)NC(=O)C(CC(C)C)N(C)C(=O)C(C(C)C)NC(=O)C(CC(C)C)N(C)C(=O)CN(C)C1=O` (centres unmarked) [Compound 75A-s] showed an IC50 of 1000 to 100000 nM.

Regarding `CCC1NC(=O)C(C2OC(SCc3cccc(S(=O)(=O)NCC(C)C)c3)CC2C)N(C)C(=O)C(C(C)C)N(C)C(=O)C(CC(C)C)N(C)C(=O)C(CC(C)C)N(C)C(=O)C(C)NC(=O)C(C)NC(=O)C(CC(C)C)N(C)C(=O)C(C(C)C)NC(=O)C(CC(C)C)N(C)C(=O)CN(C)C1=O` (centres unmarked) [Compound 76A-s], the 50% inhibitory concentration (IC50) lay within 1000 to 100000 nM.

For `CCC1NC(=O)C(C2OC(SCc3ccc(-n4cccn4)cc3)CC2C)N(C)C(=O)C(C(C)C)N(C)C(=O)C(CC(C)C)N(C)C(=O)C(CC(C)C)N(C)C(=O)C(C)NC(=O)C(C)NC(=O)C(CC(C)C)N(C)C(=O)C(C(C)C)NC(=O)C(CC(C)C)N(C)C(=O)CN(C)C1=O` (centres unmarked) [Compound 77A-s], the half-inhibitory concentration (IC50) was in the range of 1000 to 100000 nM.

As to `CCC1NC(=O)C(C2OC(SC(C)c3ccccc3)CC2C)N(C)C(=O)C(C(C)C)N(C)C(=O)C(CC(C)C)N(C)C(=O)C(CC(C)C)N(C)C(=O)C(C)NC(=O)C(C)NC(=O)C(CC(C)C)N(C)C(=O)C(C(C)C)NC(=O)C(CC(C)C)N(C)C(=O)CN(C)C1=O` (centres unmarked) [Compound 78A-s], the IC50 is 1000 to 100000 nM.

Compound `CCC1NC(=O)C(C2OC(SC(c3ccccc3)c3ccccc3)CC2C)N(C)C(=O)C(C(C)C)N(C)C(=O)C(CC(C)C)N(C)C(=O)C(CC(C)C)N(C)C(=O)C(C)NC(=O)C(C)NC(=O)C(CC(C)C)N(C)C(=O)C(C(C)C)NC(=O)C(CC(C)C)N(C)C(=O)CN(C)C1=O` (centres unmarked) [Compound 80A-s] came in with an IC50 of 1000 to 100000 nM.

`CCC1NC(=O)C(C2OC(SCc3cccc(OC)c3)CC2C)N(C)C(=O)C(C(C)C)N(C)C(=O)C(CC(C)C)N(C)C(=O)C(CC(C)C)N(C)C(=O)C(C)NC(=O)C(C)NC(=O)C(CC(C)C)N(C)C(=O)C(C(C)C)NC(=O)C(CC(C)C)N(C)C(=O)CN(C)C1=O` (centres unmarked) [Compound 81A-s] displayed an IC50 of 1000 to 100000 nM.

`CCC1NC(=O)C(C2OC(SCc3ccccc3OC)CC2C)N(C)C(=O)C(C(C)C)N(C)C(=O)C(CC(C)C)N(C)C(=O)C(CC(C)C)N(C)C(=O)C(C)NC(=O)C(C)NC(=O)C(CC(C)C)N(C)C(=O)C(C(C)C)NC(=O)C(CC(C)C)N(C)C(=O)CN(C)C1=O` (centres unmarked) [Compound 82A-s] came in with a 50% inhibitory concentration (IC50) of 1000 to 100000 nM.

`CCC1NC(=O)C(C2OC(SCc3ccc(OC)cc3)CC2C)N(C)C(=O)C(C(C)C)N(C)C(=O)C(CC(C)C)N(C)C(=O)C(CC(C)C)N(C)C(=O)C(C)NC(=O)C(C)NC(=O)C(CC(C)C)N(C)C(=O)C(C(C)C)NC(=O)C(CC(C)C)N(C)C(=O)CN(C)C1=O` (centres unmarked) [Compound 83A-s] registered a concentration for half-maximal inhibition (IC50) of 1000 to 100000 nM.

For the compound `CCC1NC(=O)C(C2OC(SCc3ccccc3Cl)CC2C)N(C)C(=O)C(C(C)C)N(C)C(=O)C(CC(C)C)N(C)C(=O)C(CC(C)C)N(C)C(=O)C(C)NC(=O)C(C)NC(=O)C(CC(C)C)N(C)C(=O)C(C(C)C)NC(=O)C(CC(C)C)N(C)C(=O)CN(C)C1=O` (centres unmarked) [Compound 84A-s], the IC50 was in the range of 1000 to 100000 nM.

Staying with this experiment, now noted: IC50, given as a range; assay not given.
With `CCC1NC(=O)C(C2OC(OCc3cccc(S(=O)(=O)NCC(C)C)c3)CC2C)N(C)C(=O)C(C(C)C)N(C)C(=O)C(CC(C)C)N(C)C(=O)C(CC(C)C)N(C)C(=O)C(C)NC(=O)C(C)NC(=O)C(CC(C)C)N(C)C(=O)C(C(C)C)NC(=O)C(CC(C)C)N(C)C(=O)CN(C)C1=O` [Compound 76A, [2-((2R,3R)-5-(3-(N-isobutylsulfamoyl)benzyloxy)-3-methyltetrahydrofuran-2-yl)-2-(methylamino)acetic acid]^1-cyclosporin A], the IC50 lay in the range of 1000 to 10000 nM.

In the case of `CCC1NC(=O)C(C2OC(OCc3ccc(-n4cccn4)cc3)CC2C)N(C)C(=O)C(C(C)C)N(C)C(=O)C(CC(C)C)N(C)C(=O)C(CC(C)C)N(C)C(=O)C(C)NC(=O)C(C)NC(=O)C(CC(C)C)N(C)C(=O)C(C(C)C)NC(=O)C(CC(C)C)N(C)C(=O)CN(C)C1=O` [Compound 77A, [2-((2R,3R)-5-(4-(1H-pyrazol-1-yl)benzyloxy)-3-methyltetrahydrofuran-2-yl)-2-(methylamino)acetic acid]^1-cyclosporin A], the 50% inhibitory concentration (IC50) fell in the range of 1000 to 10000 nM.

`CCC1NC(=O)C(C2OC(SCc3cccc(Cl)c3)CC2C)N(C)C(=O)C(C(C)C)N(C)C(=O)C(CC(C)C)N(C)C(=O)C(CC(C)C)N(C)C(=O)C(C)NC(=O)C(C)NC(=O)C(CC(C)C)N(C)C(=O)C(C(C)C)NC(=O)C(CC(C)C)N(C)C(=O)CN(C)C1=O` (centres unmarked) [Compound 85A-s] yielded an IC50 of 1000 to 100000 nM.

Still in this experiment, the particulars now being: given as a range, marked * (asterisk not explained).
As for `CCC1NC(=O)C(C2OC(Oc3cc(OCCOC)cc(OCCOC)c3)CC2C)N(C)C(=O)C(C(C)C)N(C)C(=O)C(CC(C)C)N(C)C(=O)C(CC(C)C)N(C)C(=O)C(C)NC(=O)C(C)NC(=O)C(CC(C)C)N(C)C(=O)C(C(C)C)NC(=O)C(CC(C)C)N(C)C(=O)CN(C)C1=O` (centres unmarked) [Compound 73-o], the half-inhibitory concentration (IC50) lay within 1000 to 100000 nM.

Compound `CCC1NC(=O)C(C2OC(Sc3cc(OCCOC)cc(OCCOC)c3)CC2C)N(C)C(=O)C(C(C)C)N(C)C(=O)C(CC(C)C)N(C)C(=O)C(CC(C)C)N(C)C(=O)C(C)NC(=O)C(C)NC(=O)C(CC(C)C)N(C)C(=O)C(C(C)C)NC(=O)C(CC(C)C)N(C)C(=O)CN(C)C1=O` (centres unmarked) [Compound 73] showed an IC50 of 1000 to 100000 nM.

Still in this experiment, the particulars now being: given as a range; assay not given.
`CCC1NC(=O)C(C2OC(OCc3ccccc3)CC2C)N(C)C(=O)C(C(C)C)N(C)C(=O)C(CC(C)C)N(C)C(=O)C(CC(C)C)N(C)C(=O)C(C)NC(=O)C(C)NC(=O)C(CC(C)C)N(C)C(=O)C(C(C)C)NC(=O)C(CC(C)C)N(C)C(=O)CN(C)C1=O` [Compound 74A, [2-((2R,3R)-5-(benzyloxy)-3-methyltetrahydrofuran-2-yl)-2-(methylamino)acetic acid]^1-cyclosporin A] gave an IC50 of 1 to 1000 nM.

For `CCC1NC(=O)C(C2OC(OCc3cccc(S(=O)(=O)OCC(C)C)c3)CC2C)N(C)C(=O)C(C(C)C)N(C)C(=O)C(CC(C)C)N(C)C(=O)C(CC(C)C)N(C)C(=O)C(C)NC(=O)C(C)NC(=O)C(CC(C)C)N(C)C(=O)C(C(C)C)NC(=O)C(CC(C)C)N(C)C(=O)CN(C)C1=O` [Compound 75A, [2-((2R,3R)-5-(3-(isobutoxysulfonyl)benzyloxy)-3-methyltetrahydrofuran-2-yl)-2-(methylamino)acetic acid]^1-cyclosporin A], the IC50 fell in the range of 1 to 1000 nM.

Regarding `CCC1NC(=O)C(C2OC(OC(c3ccccc3)c3ccccc3)CC2C)N(C)C(=O)C(C(C)C)N(C)C(=O)C(CC(C)C)N(C)C(=O)C(CC(C)C)N(C)C(=O)C(C)NC(=O)C(C)NC(=O)C(CC(C)C)N(C)C(=O)C(C(C)C)NC(=O)C(CC(C)C)N(C)C(=O)CN(C)C1=O` [Compound 80A, [2-((2R,3R)-3-methyl-5-(benzhydryloxy)tetrahydrofuran-2-yl)-2-(methylamino)acetic acid]^1-cyclosporin A], the concentration for half-maximal inhibition (IC50) was in the range of 1 to 1000 nM.

On to `CCC1NC(=O)C(C2OC(OCc3cccc(OC)c3)CC2C)N(C)C(=O)C(C(C)C)N(C)C(=O)C(CC(C)C)N(C)C(=O)C(CC(C)C)N(C)C(=O)C(C)NC(=O)C(C)NC(=O)C(CC(C)C)N(C)C(=O)C(C(C)C)NC(=O)C(CC(C)C)N(C)C(=O)CN(C)C1=O` [Compound 81A, [2-((2R,3R)-5-(3-methoxybenzyloxy)-3-methyltetrahydrofuran-2-yl)-2-(methylamino)acetic acid]^1-cyclosporin A], for which the IC50 was 1 to 1000 nM.

In turn, `CCC1NC(=O)C(C2OC(OCc3ccc(OC)cc3)CC2C)N(C)C(=O)C(C(C)C)N(C)C(=O)C(CC(C)C)N(C)C(=O)C(CC(C)C)N(C)C(=O)C(C)NC(=O)C(C)NC(=O)C(CC(C)C)N(C)C(=O)C(C(C)C)NC(=O)C(CC(C)C)N(C)C(=O)CN(C)C1=O` [Compound 83A, [2-((2R,3R)-5-(4-methoxybenzyloxy)-3-methyltetrahydrofuran-2-yl)-2-(methylamino)acetic acid]^1-cyclosporin A] had an IC50 of 1 to 1000 nM.

The compound `CCC1NC(=O)C(C2OC(OCc3ccccc3Cl)CC2C)N(C)C(=O)C(C(C)C)N(C)C(=O)C(CC(C)C)N(C)C(=O)C(CC(C)C)N(C)C(=O)C(C)NC(=O)C(C)NC(=O)C(CC(C)C)N(C)C(=O)C(C(C)C)NC(=O)C(CC(C)C)N(C)C(=O)CN(C)C1=O` [Compound 84A, [2-((2R,3R)-5-(2-chlorobenzyloxy)-3-methyltetrahydrofuran-2-yl)-2-(methylamino)acetic acid]^1-cyclosporin A] came in with an IC50 of 1 to 1000 nM.

Still in this experiment, the particulars now being: given as a range; assay not given; read-out: IC50.
Consider `CC[C@@H]1NC(=O)[C@H]([C@@H]2OC(OCc3cccc(Cl)c3)C[C@H]2C)N(C)C(=O)[C@H](C(C)C)N(C)C(=O)[C@H](CC(C)C)N(C)C(=O)[C@H](CC(C)C)N(C)C(=O)[C@@H](C)NC(=O)[C@H](C)NC(=O)[C@H](CC(C)C)N(C)C(=O)[C@H](C(C)C)NC(=O)[C@H](CC(C)C)N(C)C(=O)CN(C)C1=O` (stereo partly drawn) [Compound 85A, [2-((2R,3R)-5-(3-chlorobenzyloxy)-3-methyltetrahydrofuran-2-yl)-2-(methylamino)acetic acid]^1-cyclosporin A], for which the IC50 lay within 1 to 1000 nM.
